Test results: US20220087987A1, “A METHOD FOR TREATING SWI/SNF COMPLEX-DEFICIENT CANCERS COMPRISING GLUTATHIONE (GSH) METABOLIC PATHWAY INHIBITOR” (National Cancer Center, priority 2018, published 2022)
Like-named read-outs stand apart in the source and are kept apart here. Square brackets hold non-standard residues; d marks the D form. Peptide text beside a SMILES is read from it. * marks the point of attachment. Sta = CC(C)C[C@H](N)[C@@H](O)CC(=O)O; Isovaleryl = CC(C)CC(=O)*

Key:
ARID1A-KO HCT116 cells = test: Drug library screen, cell viability (CellTiter-Glo); type: cell-based, human; set-up: key to Cell viability, KO: % viability relative to DMSO solvent-treated cells
Experimental: (§1) ARID1A-WT and ARID1A-KO HCT116 cancer cells were used for screening assays. […] Cell viability was assessed after 5 days using the CellTiter-Glo Luminescent Cell Viability Assay (Promega). Luminescence was measured using an Envision Multi-label plate reader (PerkinElmer). The luminescence reading was used to determine the cell viability relative to that of cells treated with solvent (DMSO). Candidate compounds were considered if viability of ARID1A-KO cells was less than […] was more than 80%.

ARID1A-WT HCT116 cells = test: as above; type: cell-based, human; set-up: key to Cell viability, WT: % viability relative to DMSO solvent-treated cells
Experimental: as §1

[1] = HCT116 ARID1A-KO, 10 μM for 5 days, relative to cells treated with solvent (DMSO)
[2] = HCT116 ARID1A-WT, 10 μM for 5 days, relative to cells treated with solvent (DMSO)

Row | Compound | Cell viability, KO (ARID1A-KO HCT116 cells; [1]) | Cell viability, WT (ARID1A-WT HCT116 cells; [2]) | Cell viability, KO (ARID1A-KO HCT116 cells) | Cell viability, WT (ARID1A-WT HCT116 cells)
1 | COc1ccc(OC)c2c(=S)c3ccccc3[nH]c12 [NSC625987] | 161.7582 | 136.0173 | – | –
2 | Cc1nc2c(O)cccc2c(=O)[nH]1 [NU1025] | 123.2356 | 174.885 | – | –
3 | NS(=O)(=O)c1ccc(Nc2nc(OCC3CCCCC3)c3[nH]cnc3n2)cc1 [NU6102] | 124.8924 | 112.51 | – | –
4 | COc1ccc(C2=N[C@@H](c3ccc(Cl)cc3)[C@@H](c3ccc(Cl)cc3)N2C(=O)N2CCNC(=O)C2)c(OC(C)C)c1 [Nutlin-3] | 25.82 | 23.89 | – | –
5 | CCCCCCCCCCCCCCCCCCc1ccc(C(=O)/C=C/C(=O)O)cc1 [OBAA] | 110.9715 | 199.8448 | – | –
6 | O=c1onc2cnc3ccccc3n12 [ODQ] | 84.9 | 84.47 | – | –
7 | C=CCc1cccc(/C=N/NC(=O)CN2CCN(Cc3ccccc3)CC2)c1O [PAC-1] | 9.44 | 6.045 | – | –
8 | COc1ccc(Cn2ccc3ccc(C(=O)NO)cc32)cc1 [PCI-34051] | 72.3 | 71.67 | – | –
9 | O=[N+]([O-])c1ccc(-c2nc(-c3ccc(F)cc3)c(-c3ccncc3)[nH]2)cc1 [PD169316] | 151.5532 | 161.5329 | – | –
10 | CCN(CC)CCCCNc1ncc2cc(-c3cc(OC)cc(OC)c3)c(NC(=O)NC(C)(C)C)nc2n1 [PD173074] | 7.568 | 8.446 | – | –
11 | COc1cccc(-c2cc(=O)c3ccccc3o2)c1N [PD 98059] | 111.8217 | 168.8128 | – | –
12 | OCCn1cc(-c2cnc3nnn(Cc4ccc5ncccc5c4)c3n2)cn1 [PF-04217903] | 93.9615 | 86.5829 | – | –
13 | O=C(Cc1ccccc1)Nc1c2c(nc3ccccc13)N(Cc1ccccc1)CC2 [PGP-4008] | 117.1066 | 106.0362 | – | –
14 | CN(C)CC(=O)Nc1ccc2[nH]c(=O)c3ccccc3c2c1 [PJ-34] | – | – | 15.94 | 18.28
15 | O=C1Nc2ccc3ncsc3c2/C1=C/c1cnc[nH]1 [PKR inhibitor] | – | – | 16.84 | 8.714
16 | CC(C)(C)n1nc(-c2cccc3ccccc23)c2c(N)ncnc21 [PP1 analog] | 69.2339 | 76.55 | – | –
17 | CC(C)(C)n1nc(-c2ccc(Cl)cc2)c2c(N)ncnc21 [PP2] | 149.4142 | 121.2434 | – | –
18 | CC(C)CC(=O)N[C@H](C(=O)N[C@H](C(=O)N[C@@H](CC(C)C)[C@@H](O)CC(=O)N[C@@H](C)C(=O)N[C@@H](CC(C)C)[C@@H](O)CC(=O)O)C(C)C)C(C)C [Pepstatin A] (Isovaleryl-VV[Sta]A[Sta]-OH) | 126.4531 | 115.9467 | – | –
19 | Cc1ccc(-c2cn3c4c(sc3n2)CCCC4)cc1 [Pifithrin-a (cyclic)] | 99.94 | 91.15 | – | –
20 | CC(C)[C@H](CO)Nc1nc(Nc2cccc(Cl)c2)c2ncn(C(C)C)c2n1 [Purvalanol A] | 33.47 | 51.32 | – | –
21 | O=C1Nc2ccc(I)cc2/C1=C/c1cc(Br)c(O)c(Br)c1 [RAF1 kinase inhibitor I] | 164.7652 | 127.271 | – | –
22 | O=C(NCCCCCCNC(=O)ON=C1CCCCC1)ON=C1CCCCC1 [RHC80267] | 92.22 | 82.45 | – | –
23 | O=C1Nc2ccccc2C2(CCN(CCc3ccc(C(F)(F)F)cc3)CC2)O1 [RS 102895] | 47.58 | 37.34 | – | –
24 | CN1C(=O)CN=C(c2ccc(Cl)cc2)c2cc(Cl)ccc21 [Ro 5-4864] | 98.27 | 92.88 | – | –
25 | CCCCOc1cc(CC2CNC(=O)N2)ccc1OC (stereo not shown) [Ro-20-1724] | 105.8008 | 163.0432 | – | –
26 | Nc1ncnc2c1nc(Sc1ccc(Cl)cc1)n2[C@@H]1O[C@@H]2COP(O)(=S)O[C@H]2[C@H]1O (stereo partly shown) [Rp-8-CPT-cOMPS] | 135.7084 | 110.9572 | – | –
27 | NC1CC1c1cc(F)cc(F)c1OCc1ccccc1 (stereo not shown) [S2101 (LSD1 inhibitor II)] | 83.95 | 80.52 | – | –
28 | Oc1ccc(-c2nc(-c3ccc(F)cc3)c(-c3ccncc3)[nH]2)cc1 [SB202190] | 191.0939 | 108.8022 | – | –
29 | COc1nccc(-c2c(-c3ccc(F)cc3)ncn2C2CCC(O)CC2)n1 (stereo not shown) [SB239063] | 174.3691 | 118.4502 | – | –
